Two molecules from patent US7425537B2, “SH2 domain binding inhibitors” (The United States of America as represented by the …, priority 2000, dated 2008) can be followed below.

One data set has as its target T1, c-Met-Grb2 interaction (Mus musculus, UniProt Q60631).
T1 construct: endogenous in cells; host or cells: murine 32D c-met cells
In words: c-Met-Grb2 co-immunoprecipitation/immunoblot in intact 32D c-met cells after HGF/NK1 stimulation. It is filed as cell-based, murine. The note with it: 32D c-met cells pretreated 16 h with 30 nM or 300 nM prior to HGF/NK1 stimulation. The protocol:
To characterize the time period and dose which the Grb2 SH2 domain inhibitor (antagonist) compound of formula 4 enters intact cells, the murine IL-3-dependent cell line 32D c-met was used. The effects of the inhibitor on c-Met-Grb2 interaction was examined by co-immunoprecipitation/immunoblot analysis. Cells were cultured in RPMI 1640+15% FBS and 5% WEHI-3B conditioned medium. Intact 32Dc-met cells were treated with different amount (3, 30, 300 nM) of the compound for 1, 2, 4, and 16 h, then briefly stimulated with HGF/NK1 for 10 minutes before lysis, immunoprecipitated with anti-Grb2 antibodies (Santa Cruz), and immunoblotting with anti-c-Met (Santa Cruz), or anti-Grb2 (Transduction Lab). HGF/NK1 stimulated co-immunoprecipitation of the 145 kDa c-Met beta subunit with Grb2. When cells were pretreated for 16 h with 30 nM or 300 nM compound of formula 4 prior to HGF/NK1 stimulation, the amount of HGF receptor that was co-immunoprecipitated with Grb2 was reduced by approximately 50%.

The test system of data set [1] is erbB-2 driven breast cancer cells. In words: Assay of cell proliferation (direct cell counting). It is filed as cell-based. The note with it: FIG. 26, read-out: IC50, cell growth inhibition.

pIC50: −log10 of the molar value.

T1 sequence (Q60631 whole entry): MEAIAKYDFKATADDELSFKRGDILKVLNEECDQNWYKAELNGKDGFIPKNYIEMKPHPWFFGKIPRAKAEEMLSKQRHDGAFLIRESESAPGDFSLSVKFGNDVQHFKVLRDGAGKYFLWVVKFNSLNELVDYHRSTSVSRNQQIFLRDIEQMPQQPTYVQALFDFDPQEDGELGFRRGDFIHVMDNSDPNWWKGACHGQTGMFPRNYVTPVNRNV

As for `NC(=O)C[C@@H]1NC(=O)C2(CCCCC2)NC(=O)C[C@@H](c2ccc(CP(=O)(O)O)cc2)C=CC[C@@H](Cc2cccc3ccccc23)CNC1=O` [Compound 4a, 2-[(9S, 13S, 17R)-8, 11, 20-triaza-13-(naphthylmethyl)-7, 10, 19-trioxo-17-[4-(phosphonomethyl)phenyl]spiro[5.14]icos-15-en-9-yl]acetamide], the “Reduction of amount of HGF receptor co-immunoprecipitated with Grb2” value at c-Met-Grb2 interaction is given as “approximately 50%”. As for `NC(=O)C[C@@H]1NC(=O)C2(CCCCC2)NC(=O)[C@@H](CC(=O)O)[C@@H](c2ccc(CP(=O)(O)O)cc2)/C=C/C[C@@H](Cc2cccc3ccccc23)CNC1=O` [Compound 233, 2-[(9S, 10S, 14S, 18S)-7, 16, 19-triaza-18-(carbamoylmethyl)-14-(naphthylmethyl)-8,17,20-trioxo-10-[4-(phosphonomethyl)phenyl]spiro[5.14]icos-11-en-9-yl]acetic acid], the melting point (usually the temperature, or range, at which the solid turns liquid) is 260 °C (dec.). Also, in data set [1], the pIC50 (in general, −log10 of the IC50, conventionally taken in molar units) was greater than 6.00.
